Where two headings read alike, the source gives them in different places.
Experiments:
[1] = test system: A375 cells; assay: Proliferation assay (cell count after 72 h), A375; assay type: cell-based; conditions: Homo sapiens, read-out: IC50 values
Description: (§1) Cell culture: Murine primary melanoma […].3A cells were obtained from Dartmouth College, Hanover. […].3A cells were cultured in Advanced DMEM growth media supplemented with 5% FBS, 100 μg/mL streptomycin, 100 IU/mL penicillin, 12.5 IU/mL nystatin, and 1% GlutaMAXTM (Gibco, Waltham, MA, USA). Human metastatic melanoma 131/4-5B1 cells were obtained from University of Toronto, Canada, and were cultured in RPMI 1640 medium supplemented with 10% FBS, 100 μg/mL streptomycin, 100 IU/mL penicillin, 12.5 IU/mL nystatin, and 2 mM L-Glutamine (Biological Industries Ltd, Kibbutz Beit Haemek, Israel). Human primary melanoma A375 cells were obtained from ATCC and were cultured in RPMI 1640 medium supplemented with 10% FBS, 100 μg/mL streptomycin, 100 IU/mL penicillin, 12.5 IU/mL nystatin, and 2 mM L-Glutamine. […] Following 72 hours incubation, the cells were counted using a Z1 Coulter Counter (Beckman Coulter). […] Isobolograns and combination index: The interactions between DBF and TRM were evaluated by constructing isobolograms for different drugs ratios and calculating their combination index (CI).^51 First, the inhibitory concentration (IC) values of treatment with DBF, TRM, and their combinations were calculated from the proliferation assays. […]

[2] = test system: D4M.3A cells; assay: Proliferation assay (cell count after 72 h), D4M.3A; assay type: cell-based, murine; conditions: Mus musculus, read-out: IC50 values
Description: as §1

[3] = in vivo; cited from earlier work
[4] = test system: MDA-MB-231 cells; assay: Proliferation assay, MDA-MB-231; assay type: cell-based; conditions: Homo sapiens; MDA-MB-231 (BRCA wild-type), 72 hours
Description: (§2) Human MDA-MB-231 and MDA-MB-436, and murine 4T1 and EMT6 cells were obtained from the ATCC. EMT6, MDA-MB-231 and MDA-MB-436 cells were cultured in DMEM supplemented with 10% FBS, 100 IU/mL penicillin, 100 μg/mL streptomycin, 12.5 U/mL Nystatin, 2 mM L-glutamine. 4T1 cells were cultured in RPMI supplemented with 10% FBS, 100 IU/mL Penicillin, 100 μg/mL Streptomycin, 12.5 U/mL Nystatin, 2 mM L-glutamine, 1 mM sodium pyruvate and 10 mM HEPES Buffer. For MDA-MB-436, MDA-MB-23, 4T1 and EMT6, cells were seeded in 24-well plates (2.5×10^4, 2.5×10^4, 1×10^4, 2×10^3 cells/well, respectively) and incubated for 24 hours. Then, the cultured medium was replaced with a medium containing a serial dilution of talazoparib, talazoparib-loaded NPs or blank NPs (carrier only) for additional 72 hours. Untreated (control) cells were supplemented with fresh medium containing 0.1% DMSO. The cells were counted using a Z1 Coulter Counter (Beckman Coulter). Each treatment was assayed in triplicates, N=3.

[5] = test system: 4T1 cells; assay: Proliferation assay, 4T1; assay type: cell-based, murine; conditions: Mus musculus; 4T1 (BRCA wild-type), 72 hours
Description: as §2

[6] = test system: mCherry-labeled EMT6 3D spheroids; assay: mCherry-labeled EMT6 3D spheroids sprouting; assay type: cell-based, murine; conditions: Mus musculus, compared to the control
Description: Analysis of mCherry-labeled EMT6 3D spheroids sprouting: 3D spheroid of EMT6 cells (2000 cells/spheroid) were prepared in DMEM medium supplemented with 0.24 w/v % methyl cellulose. The cells were deposited in 25 μL droplets into the inner side of a 20 mm dish and incubated for 48 hours at 37° C. when the plate is facing upside down to allow for spheroid formation. The spheroids were then embedded in Matrigel®, seeded in a 96-well plate, and monitored for cell invasion into the Matrigel®. The 3D spheroids were treated with talazoparib (1 nM, 100 nM and 1 μM) and their sprouting in the Matrigel® was evaluated by measuring the % red area with ImageJ software.

[7] = test system: EMT6 cells; assay: Proliferation assay, EMT6; assay type: cell-based, murine; conditions: Mus musculus
Description: as §2

[8] = test system: PD-L1 expression in EMT6 cells; assay: PD-L1 expression in EMT6 cells by flow cytometry; assay type: cell-based, murine
Description: PD-L1 expression after treatments with talazoparib: EMT6 murine mammary carcinoma cells (obtained from ATCC) were incubated with talazoparib (0.1 nM, 10 nM, and 100 nM) for 24-72 hours and then harvested using FACS buffer (protein levels). 1×10^6 cells were incubated with anti-PD-L1 at 1 μg/ml antibody concentration (Mouse PD-L1/B7-H1 Alexa Fluor® 647-conjugated Antibody; R & D Systems #FAB90781R) or isotype antibody (Rabbit IgG Alexa Fluor®647-conjugated Antibody, R & D Systems #IC1051R) for 1 hour on ice. The cells were washed twice with FACS buffer and the fluorescence intensity was measured by Attune NxT Flow Cytometer and analyzed by Kaluza software. All treatments were compared to the secondary antibody only or to the corresponding isotype control.
PD-L1i blocking activity: In order to assess the PD-L1i small molecule inhibition activity, murine EMT6 cells were seeded in 24-well plate (2×10^4 cells/well). After 24 hours, the medium was replaced with medium containing PD-L1i (SM56; [Acúrcio et al. Journal for ImmunoTherapy of Cancer, 10(7), e004695 (2022)]) for 24-72 hours. The cells were then harvested with FACS buffer, washed and resuspended in FACS buffer. EMT6 cells (1×10^6) were incubated with anti-PD-L1 at 1 μg/ml antibody concentration (Mouse PD-L1/B7-H1 Alexa Fluor®647-conjugated Antibody; R & D Systems #FAB90781R) or isotype antibody (Rabbit IgG Alexa Fluor®647-conjugated Antibody, R & D Systems #IC1051R) for 1 hour on ice. Additionally, to evaluate synergistic activity of PD-L1i with talazoparib, EMT6 cells were treated with the combination of PD-L1i and talazoparib for 48 hours. Later, same antibody and incubation conditions described previously were followed. These experiments were reproduced trice, and the data represent the mean±SD.

[9] = test system: PD-L1 RNA in EMT6 cells; assay: PD-L1 mRNA in EMT6 cells by q-Real time PCR; assay type: cell-based, murine; conditions: 10 nM, 24-72 hours
Description: q-Real time PCR: Total RNA was isolated from cultured cells using the Direct-zol RNA Miniprep Plus (Zymo Research), according to the manufacturer's instructions. Once isolated, one microgram of RNA was reverse transcribed to cDNA using qScript cDNA synthesis kit (Quantabio, MA, USA). The cDNA was further diluted (1:50 in DNase/RNase-Free Water) for the qPCR. PD-L1 mRNA levels were assessed by SYBR green real-time PCR (StepOne plus; Thermo Fisher Scientific, Waltham, MA, USA) using PerFecTa SYBR Green FastMix ROX (Quanta BioSciences) and the following custom primers: murine PD-L1: forward, 5′-[…]-3′, reverse, 5′-[…]-3′. GAPDH: forward, 5′-ATTCCACCCATGGAATTC-3′, reverse, 5′-[…]-′3.

[10] = test system: PD-L1 localizations in EMT6 cells; assay: dSTORM imaging of PD-L1 in EMT6 cells; assay type: cell-based, murine; conditions: increasing concentrations, 48 hours
Description: dSTORM imaging of PD-L1 after exposure of EMT6 cells to talazoparib: EMT6 cells were seeded in Ibidi μ-slide 8 well glass bottom chambered coverslips at a density of 5000 cells per well. After 24 hours incubation, cells were treated with Talazoparib for 48 hours ([…]). After 48 hours cells were washed 1× with PBS and fixed using 3.7% formaldehyde solution for 10 minutes at room temperature. After fixation, cells were washed trice with PBS and incubated with 5% BSA solution overnight at 4° C. […] Between 6 and 10 cells were imaged for each condition. dSTORM images were analyzed with the Nikon NIS elements software (version 5.21.01). dSTORM localizations were detected using Gaussian fitting, with a minimum intensity threshold height of 150 for the 647 nm channel. Molecules detected in 5 consecutive frames were considered as a single blinking event, while molecules detected in more than 5 frames were discarded. […] The resulting x-y coordinates of the detected localizations were imported and run through a custom MATLAB scrip to quantify the localization density per cell. Each cell was manually selected by drawing an ROI around the cell contour (detected in the 488 channel). […]

[11] = test system: MDA-MB-436 cells; assay: Proliferation assay, MDA-MB-436; assay type: cell-based; conditions: Homo sapiens; MDA-MB-436 (BRCA-mutated), 72 hours
Description: as §2

[12] = test system: pERK and ki67 in tumors; conditions: 30 mg/kg DBF daily, cited from earlier work
[13] = test system: melanoma patients; conditions: cited from earlier work

## CC(=O)Nc1cccc(-n2c(=O)n(C3CC3)c(=O)c3c(Nc4ccc(I)cc4F)n(C)c(=O)c(C)c32)c1 [TRM, trametinib]
[1]; A-375, A375, 72 hours
  IC50: 8.5 nM
[2]; D4M.3A, 72 hours
  IC50: 8.6 nM
[3]
  Steady-state brain to plasma concentration ratio: 0.03±0.01

## Cn1ncnc1[C@H]1c2n[nH]c(=O)c3cc(F)cc(c23)N[C@@H]1c1ccc(F)cc1 [talazoparib]
[4]
  IC50: 411 nM
[5]
  IC50: 58 nM
[6]
  inhibition at 1 µM: 70%
[7]; EMT6 (BRCA-mutated), 72 hours
  IC50: 10 nM
[7]; EMT6 proliferation, NPs versus free drug (FIG. 32)
  IC50: 8 nM
[8]; 10 nM talazoparib and/or 10 μM PD-L1i, 48 hours
  PD-L1 expression relative to untreated cells: 3 folds
[8]; 10 nM, 24-72 hours
  PD-L1 protein expression: time-dependent increase in PD-L1 expression
[8]; increasing concentrations, 72 hours
  PD-L1 protein expression: induced PD-L1 expression in EMT6 cells in a dose-dependent manner
[9]
  PD-L1 RNA level: time-dependent increase in PD-L1 expression
[10]
  PD-L1 localizations and protein density (dSTORM): increased number of PD-L1 localizations and higher PD-L1 protein density
[11]
  IC50: 2 nM

## O=C1c2ccccc2C(=O)N1CNc1ccc(Oc2ccc(Cl)cc2)cc1 [SM56]
[8]; 10 μM PD-L1i alone, 48 hours
  Reduction of PD-L1 expression compared to untreated cells: about 40%
[8]; 10 μM, 24-72 hours
  PD-L1 expression over time: reduction in PD-L1 expression in a time-dependent manner

## CC(C)(C)c1nc(-c2cccc(NS(=O)(=O)c3c(F)cccc3F)c2F)c(-c2ccnc(N)n2)s1 [DBF, dabrafenib]
[1]; A-375, 72 h
  IC50: 13.6 nM
[2]; 72 h
  IC50: 4.9 nM
[12]; 6 hours post-final dose
  Inhibition of pERK in tumors: 89%
  Reduction in ki67 in tumors: 28%
[12]
  Duration of pERK reduction in tumors post-dose: up to 18 hours
[13]
  Overall survival (OS): 18.7 months
  Progression-free survival (PFS): 8.8 months
[3]
  Steady-state brain to plasma concentration ratio: 0.019±0.02
